Experimental data: paper PMC9182007, “Statistical Methods in the Study of Protein Binding and Its Relationship to Drug Bioavailability in Breast Milk” (Molecules, 2022)
Read-outs that look alike come from different tables or passages of the source.

How the values were obtained:
[1] = HPLC on immobilized artificial membrane column (HPLCIAM); format: physicochemical; conditions: for log k IAM: Table S5, IAM column, pH 7.4; for k IAM: Table S5, retention factor, IAM column, phosphate buffer pH 7.4/acetonitrile 80:20; for log kIAM / kIAM: Table S9, external group
[2] = NP TLC on non-impregnated control plates; format: physicochemical; conditions: for CNP (Rf, control NP plate): Table S3, non-impregnated NP plate, acetonitrile/acetate buffer pH 7.4/methanol 60:20:20; for CNP (Rf value from the non-impregnated NP plate, control): Table S8, external group
[3] = biological target: human serum albumin (HSA) (Homo sapiens, UniProt P02768); conditions: pH 7.4
[4] = RP TLC on non-impregnated control plates; format: physicochemical; conditions: Table S4, non-impregnated RP plate; acetonitrile/acetate buffer pH 7.4/methanol 60:20:20
[5] = system: plasma protein; conditions: ref DrugBank [7], cited from earlier work
[6] = biological target: T1, bovine serum albumin (BSA) (Bos taurus, UniProt P02769); test: NP TLC on plates impregnated with bovine serum albumin; format: binding
T1 construct: purchased Sigma Aldrich

[7] = Table S1, plasma protein binding given as fraction
[8] = Table S6, external group (n = 38), given as fraction

T1 sequence (P02769 25-607): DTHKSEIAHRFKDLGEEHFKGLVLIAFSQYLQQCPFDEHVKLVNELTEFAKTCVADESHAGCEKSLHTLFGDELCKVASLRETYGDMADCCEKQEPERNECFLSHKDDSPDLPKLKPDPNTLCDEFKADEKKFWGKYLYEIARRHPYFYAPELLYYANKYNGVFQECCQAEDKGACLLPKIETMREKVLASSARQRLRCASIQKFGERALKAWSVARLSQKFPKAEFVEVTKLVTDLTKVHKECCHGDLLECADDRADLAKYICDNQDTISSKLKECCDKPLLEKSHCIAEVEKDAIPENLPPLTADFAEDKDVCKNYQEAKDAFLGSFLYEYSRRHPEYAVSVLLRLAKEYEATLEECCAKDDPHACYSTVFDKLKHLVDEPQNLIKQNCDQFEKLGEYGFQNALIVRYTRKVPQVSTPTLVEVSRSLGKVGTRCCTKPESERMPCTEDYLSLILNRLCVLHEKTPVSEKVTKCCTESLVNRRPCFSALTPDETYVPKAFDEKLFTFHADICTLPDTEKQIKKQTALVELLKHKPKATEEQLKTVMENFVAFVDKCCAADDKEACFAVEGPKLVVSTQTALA
Chain of human serum albumin (HSA) (P02768 25-609): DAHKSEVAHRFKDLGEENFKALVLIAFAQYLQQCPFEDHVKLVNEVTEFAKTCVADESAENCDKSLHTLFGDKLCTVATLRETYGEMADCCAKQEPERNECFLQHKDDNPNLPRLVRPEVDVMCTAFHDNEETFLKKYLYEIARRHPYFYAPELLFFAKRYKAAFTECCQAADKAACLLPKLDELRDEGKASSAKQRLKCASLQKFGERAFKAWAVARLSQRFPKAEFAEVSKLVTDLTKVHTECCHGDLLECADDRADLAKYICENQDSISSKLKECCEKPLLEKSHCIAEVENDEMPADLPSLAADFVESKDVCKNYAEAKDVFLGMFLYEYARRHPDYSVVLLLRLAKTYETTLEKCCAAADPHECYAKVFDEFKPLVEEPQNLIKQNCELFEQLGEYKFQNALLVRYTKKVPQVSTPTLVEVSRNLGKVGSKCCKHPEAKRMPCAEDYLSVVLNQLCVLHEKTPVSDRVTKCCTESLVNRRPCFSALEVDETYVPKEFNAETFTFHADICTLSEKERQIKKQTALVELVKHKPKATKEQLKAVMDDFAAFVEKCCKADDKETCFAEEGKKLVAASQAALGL

O=C(O)COC(=O)Cc1ccccc1Nc1c(Cl)cccc1Cl [aceclofenac]
log k IAM [1]: 0.42
k IAM [1]: 2.63
CNP (Rf, control NP plate) [2]: 0.89
k HSA [3]: 55.89

CC(=O)CC(c1ccc([N+](=O)[O-])cc1)c1c(O)c2ccccc2oc1=O (stereo not drawn) [acenocumarol]
log k IAM [1]: -0.27
k IAM [1]: 0.53

Nc1nc2c(ncn2COCCO)c(=O)[nH]1 [aciclovir]
log k IAM [1]: -1.04
k IAM [1]: 0.09
CRP (Rf, control RP plate) [4]: 0.99
PB [5, 7]: 0.21

Cc1nnc2n1-c1ccc(Cl)cc1C(c1ccccc1)=NC2 [alprazolam]
log k IAM [1]: 0.50
k IAM [1]: 3.14
PB [5, 7]: 0.8

CCCCc1oc2ccccc2c1C(=O)c1cc(I)c(OCCN(CC)CC)c(I)c1 [amiodarone]
CRP (Rf, control RP plate) [4]: 0.33

CCOC(=O)C1=C(COCCN)NC(C)=C(C(=O)OC)C1c1ccccc1Cl (stereo not drawn) [amlodipine]
log k IAM [1]: 2.00
k IAM [1]: 98.90
CRP (Rf, control RP plate) [4]: 0.61

CC(C)c1c(C(=O)Nc2ccccc2)c(-c2ccccc2)c(-c2ccc(F)cc2)n1CC[C@@H](O)C[C@@H](O)CC(=O)O [atorvastatin]
CRP (Rf, control RP plate) [4]: 0.80

Cn1c(=O)c2c(ncn2C)n(C)c1=O [caffeine]
log k IAM [1]: -0.75
k IAM [1]: 0.18
CNP (Rf, control NP plate) [2]: 0.82

C[C@H](CS)C(=O)N1CCC[C@H]1C(=O)O [captopril]
log k IAM [1]: -2.19
k IAM [1]: 0.01
CNP (Rf, control NP plate) [2]: 0.77

CCN(CC)CCCC(C)Nc1ccnc2cc(Cl)ccc12 (stereo not drawn) [chloroquine]
log kIAM [1]: 0.49
PB [5, 8]: 0.55

O=C(O)c1cn(C2CC2)c2cc(N3CCNCC3)c(F)cc2c1=O [ciprofloxacin]
CRP (Rf, control RP plate) [4]: 0.38
CNP (Rf, control NP plate) [2]: 0.11

CN(C)CCCC1(c2ccc(F)cc2)OCc2cc(C#N)ccc21 (stereo not drawn) [citalopram]
kIAM [1]: 3.14
log kIAM [1]: 0.50
PB [5, 8]: 0.80

CN(C)CCCN1c2ccccc2CCc2ccc(Cl)cc21 [clomipramine]
kIAM [1]: 3.05
log kIAM [1]: 0.48

COc1cc2c(c(OC)c1OC)-c1ccc(OC)c(=O)cc1[C@@H](NC(C)=O)CC2 [colchicine]
PB [5, 8]: 0.39

Clc1ccc2c(c1)CCc1cccnc1C2=C1CCNCC1 [desloratidine]
log k IAM [1]: 1.70
k IAM [1]: 50.45

C[C@H]1O[C@@H](O[C@H]2[C@@H](O)C[C@H](O[C@H]3[C@@H](O)C[C@H](O[C@H]4CC[C@@]5(C)[C@H](CC[C@@H]6[C@@H]5C[C@@H](O)[C@]5(C)[C@@H](C7=CC(=O)OC7)CC[C@]65O)C4)O[C@@H]3C)O[C@@H]2C)C[C@H](O)[C@@H]1O [digoxin]
log k IAM [1]: 0.57
k IAM [1]: 3.69

COc1cc2nc(N3CCN(C(=O)C4COc5ccccc5O4)CC3)nc(N)c2cc1OC (stereo not drawn) [doxazosin]
log k IAM [1]: -0.66
k IAM [1]: 0.22
CRP (Rf, control RP plate) [4]: 0.75

CN(C)CCC[C@@]1(c2ccc(F)cc2)OCc2cc(C#N)ccc21 [escitalopram]
log k IAM [1]: 1.51
k IAM [1]: 32.08
CRP (Rf, control RP plate) [4]: 0.55
CNP (Rf, control NP plate) [2]: 0.42
PB [5, 7]: 0.56

CC(C)(C(=O)O)c1ccc(C(O)CCCN2CCC(C(O)(c3ccccc3)c3ccccc3)CC2)cc1 (stereo not drawn) [fexofenadine]
CRP (Rf, control RP plate) [4]: 0.85
CNP (Rf, control NP plate) [2]: 0.61

CNCCC(Oc1ccc(C(F)(F)F)cc1)c1ccccc1 (stereo not drawn) [fluoxetine]
log k IAM [1]: 1.82
k IAM [1]: 66.64
CRP (Rf, control RP plate) [4]: 0.54
CNP (Rf, control NP plate) [2]: 0.68
PB [5, 7]: 0.945

COCCCC/C(=N\OCCN)c1ccc(C(F)(F)F)cc1 [fluvoxamine]
CNP (Rf value from the non-impregnated NP plate, control) [2]: 0.34

NS(=O)(=O)c1cc2c(cc1Cl)NCNS2(=O)=O [hydrochlorotiazide]
kIAM [1]: 2.01
log kIAM [1]: 0.30

CC(C)Cc1ccc(C(C)C(=O)O)cc1 (stereo not drawn) [ibuprofen]
log k IAM [1]: -0.07
k IAM [1]: 0.86

CC(C(=O)O)c1cccc(C(=O)c2ccccc2)c1 (stereo not drawn) [ketoprofen]
log k IAM [1]: -0.71
k IAM [1]: 0.20

O=C(O)COCCN1CCN([C@H](c2ccccc2)c2ccc(Cl)cc2)CC1 [levocetrizine]
log k IAM [1]: 0.58
k IAM [1]: 3.82

C[C@H]1COc2c(N3CCN(C)CC3)c(F)cc3c(=O)c(C(=O)O)cn1c23 [levofloxacin]
log k IAM [1]: -0.04
k IAM [1]: 0.90
CRP (Rf, control RP plate) [4]: 0.27
CNP (Rf, control NP plate) [2]: 0.17
PB [5, 7]: 0.31

Cc1cnc(NC(=O)C2=C(O)c3ccccc3S(=O)(=O)N2C)s1 [meloxicam]
log k IAM [1]: -0.31
k IAM [1]: 0.49

Nc1cc(N2CCCCC2)nc(N)[n+]1[O-] [minoxidil]
kIAM [1]: 1.96
log kIAM [1]: 0.29
CNP (Rf value from the non-impregnated NP plate, control) [2]: 0.43
PB [5, 8]: 0.00

CC(C)(O)c1ccccc1CC[C@@H](SCC1(CC(=O)O)CC1)c1cccc(/C=C/c2ccc3ccc(Cl)cc3n2)c1 [montelukast]
log k IAM [1]: 2.00
k IAM [1]: 99.10
CRP (Rf, control RP plate) [4]: 0.70
CNP (Rf, control NP plate) [2]: 0.95

COc1ccc2cc([C@H](C)C(=O)O)ccc2c1 [naproxen]
CRP (Rf, control RP plate) [4]: 0.88
CNP (Rf, control NP plate) [2]: 0.92

CC1COc2c(N3CCN(C)CC3)c(F)cc3c(=O)c(C(=O)O)cn1c23 (stereo not drawn) [ofloxacin]
kIAM [1]: 3.07
log kIAM [1]: 0.49
CNP (Rf value from the non-impregnated NP plate, control) [2]: 0.24
PB [5, 8]: 0.32

O=C1Nc2ccc(Cl)cc2C(c2ccccc2)=NC1O (stereo not drawn) [oxazepam]
log k IAM [1]: 0.68
k IAM [1]: 4.78

CCN(CC)CC#CCOC(=O)C(O)(c1ccccc1)C1CCCCC1 (stereo not drawn) [oxybutinin]
log k IAM [1]: 1.70
k IAM [1]: 49.68
CRP (Rf, control RP plate) [4]: 0.29
CNP (Rf, control NP plate) [2]: 0.68

CCCNCC(O)COc1ccccc1C(=O)CCc1ccccc1 (stereo not drawn) [propafenone]
CRP (Rf, control RP plate) [4]: 0.56
CNP (Rf, control NP plate) [2]: 0.57

CC(C)NCC(O)COc1cccc2ccccc12 (stereo not drawn) [propranolol]
log k IAM [1]: 1.45
k IAM [1]: 28.09
CNP (Rf, control NP plate) [2]: 0.54
NP (Rf, BSA-impregnated NP plate) ([6]; Table S3, NP plate impregnated with 2 mg/mL BSA, pH 7.4 mobile phase): 0.50

CCCc1cc(=O)[nH]c(=S)[nH]1 [propylthiouracil]
kIAM [1]: 1.51
log kIAM [1]: 0.18
PB [5, 8]: 0.82

C=C[C@H]1C[N@@]2CC[C@H]1C[C@H]2[C@H](O)c1ccnc2ccc(OC)cc12 [quinine]
kIAM [1]: 3.06
log kIAM [1]: 0.49

CCC(C)(C)C(=O)O[C@H]1C[C@@H](C)C=C2C=C[C@H](C)[C@H](CC[C@@H]3C[C@@H](O)CC(=O)O3)[C@H]21 [simvastatin]
CRP (Rf, control RP plate) [4]: 0.66
CNP (Rf, control NP plate) [2]: 0.19

CCN1CCCC1CNC(=O)c1cc(S(N)(=O)=O)ccc1OC (stereo not drawn) [sulpiride]
log k IAM [1]: 0.22
k IAM [1]: 1.66
CRP (Rf, control RP plate) [4]: 0.85
CNP (Rf, control NP plate) [2]: 0.27
PB [5, 7]: 0.4

CN1C(=O)C(O)N=C(c2ccccc2)c2cc(Cl)ccc21 (stereo not drawn) [temazepam]
log k IAM [1]: 0.83
k IAM [1]: 6.74

COc1cccc(C2(O)CCCCC2CN(C)C)c1 (stereo not drawn) [tramadol]
PB [5, 8]: 0.20

COc1cc(Cc2cnc(N)nc2N)cc(OC)c1OC [trimethoprim]
CNP (Rf value from the non-impregnated NP plate, control) [2]: 0.57
NP (Rf value from the NP plate impregnated with 2 mg/mL BSA solution) ([6]; Table S8, external group): 0.59
PB [5, 8]: 0.44

CCCCC(=O)N(Cc1ccc(-c2ccccc2-c2nnn[nH]2)cc1)[C@H](C(=O)O)C(C)C [valsartan]
log k IAM [1]: -1.10
k IAM [1]: 0.08
CRP (Rf, control RP plate) [4]: 0.97
CNP (Rf, control NP plate) [2]: 0.89
PB [5, 7]: 0.955

CC(=O)CC(c1ccccc1)c1c(O)c2ccccc2oc1=O (stereo not drawn) [warfarin]
kIAM [1]: 2.76
log kIAM [1]: 0.44

gentamycin
kIAM [1]: 4.25
log kIAM [1]: 0.63
CNP (Rf value from the non-impregnated NP plate, control) [2]: 0.96
